Reference: publication PMC11859928, “Design, Synthesis, and Antiproliferative Activity of Novel Indole/1,2,4-Triazole Hybrids as Tubulin Polymerization Inhibitors” (Pharmaceuticals, 2025)

Key:
Assay in all cases: NCI one-dose assay
[1] = tested on: HOP-92; assay type: cell-based, human; settings: Homo sapiens, HOP-92, HOP-92, Non-small cell lung cancer, read-out: Cell growth inhibition %
Method: (§1) The National Cancer Institute (NCI), Bethesda, USA, selected the final compounds 6a–j and 7a–j for in vitro anticancer screening. An initial in vitro single-dose anticancer experiment was performed with the entire NCI 60 cell lines derived from nine tumor subpanel cancer cell lines. The results for each compound were illustrated as a mean graph showing the percentage growth of treated cells compared to untreated control cells (see Supplementary Materials).
(§2) The NCI anticancer screening process has been thoroughly detailed. The Drug Evaluation Branch of the National Cancer Institute in Bethesda, […], USA, established the procedure and conducted the anticancer assay on 60 human tumor cell lines from nine neoplastic cancers.

[2] = tested on: UO-31; assay type: cell-based, human; settings: for inhibition at 10 µM: Homo sapiens, UO-31, UO-31, Renal cancer, read-out: Cell growth inhibition %
Method: as §1, §2

[3] = tested on: 786-0; assay type: cell-based, human; settings: Homo sapiens, 786-0, 786-0, Renal cancer, read-out: Cell growth inhibition %
Method: as §1, §2

[4] = tested on: CCRF-CEM; assay type: cell-based; settings: Homo sapiens, Leukemia, read-out: Cell growth inhibition %
Method: as §1, §2

[5] = tested on: HOP-62; assay type: cell-based; settings: Homo sapiens, HOP-62, Non-small cell lung cancer, read-out: Cell growth inhibition %
Method: as §1, §2

[6] = tested on: SK-MEL-28; assay type: cell-based; settings: Homo sapiens, SK-MEL-28, Melanoma, read-out: Cell growth inhibition %
Method: as §1, §2

[7] = tested on: SN12C; assay type: cell-based; settings: Homo sapiens, Renal cancer, read-out: Cell growth inhibition %
Method: as §1, §2

[8] = tested on: HCT-116; assay type: cell-based; settings: Homo sapiens, HCT-116, Colon cancer, read-out: Cell growth inhibition %
Method: as §1, §2

[9] = tested on: OVCAR-3; assay type: cell-based; settings: Homo sapiens, OVCAR-3, Ovarian cancer, read-out: Cell growth inhibition %
Method: as §1, §2

[10] = tested on: SNB-19; assay type: cell-based; settings: Homo sapiens, SNB-19, CNS cancer, read-out: Cell growth inhibition %
Method: as §1, §2

[11] = tested on: U251; assay type: cell-based; settings: Homo sapiens, U-251, U251, CNS cancer, read-out: Cell growth inhibition %
Method: as §1, §2

[12] = tested on: UACC-257; assay type: cell-based; settings: Homo sapiens, UACC-257, Melanoma, read-out: Cell growth inhibition %
Method: as §1, §2

[13] = tested on: RPMI-8226; assay type: cell-based; settings: Homo sapiens, RPMI-8226, Leukemia, read-out: Cell growth inhibition %
Method: as §1, §2

[14] = tested on: SNB-75; assay type: cell-based; settings: Homo sapiens, SNB-75, CNS cancer, read-out: Cell growth inhibition %
Method: as §1, §2

[15] = tested on: T-47D; assay type: cell-based; settings: Homo sapiens, T47D, Breast cancer, read-out: Cell growth inhibition %
Method: as §1, §2

[16] = tested on: MALME-3M; assay type: cell-based; settings: Homo sapiens, Melanoma, read-out: Cell growth inhibition %
Method: as §1, §2

[17] = tested on: NCI-H226; assay type: cell-based; settings: Homo sapiens, NCI-H226, Non-small cell lung cancer, read-out: Cell growth inhibition %
Method: as §1, §2

[18] = tested on: NCI-H322M; assay type: cell-based; settings: Homo sapiens, Non-small cell lung cancer, read-out: Cell growth inhibition %
Method: as §1, §2

[19] = tested on: KM12; assay type: cell-based; settings: Homo sapiens, KM12, Colon cancer, read-out: Cell growth inhibition %
Method: as §1, §2

[20] = tested on: PC-3; assay type: cell-based; settings: Homo sapiens, PC-3, Prostate cancer, read-out: Cell growth inhibition %
Method: as §1, §2

[21] = tested on: SK-MEL-2; assay type: cell-based; settings: Homo sapiens, SK-MEL-2, Melanoma, read-out: Cell growth inhibition %
Method: as §1, §2

[22] = tested on: TK-10; assay type: cell-based; settings: Homo sapiens, TK-10, Renal cancer, read-out: Cell growth inhibition %
Method: as §1, §2

[23] = tested on: DU-145; assay type: cell-based; settings: Homo sapiens, DU-145, Prostate cancer, read-out: Cell growth inhibition %
Method: as §1, §2

[24] = tested on: HCC-2998; assay type: cell-based; settings: Homo sapiens, HCC-2998, Colon cancer, read-out: Cell growth inhibition %
Method: as §1, §2

[25] = tested on: OVCAR-5; assay type: cell-based; settings: Homo sapiens, OVCAR-5, Ovarian cancer, read-out: Cell growth inhibition %
Method: as §1, §2

[26] = tested on: COLO 205; assay type: cell-based; settings: Homo sapiens, COLO 205, Colon cancer, read-out: Cell growth inhibition %
Method: as §1, §2

[27] = tested on: SW-620; assay type: cell-based; settings: Homo sapiens, SW-620, Colon cancer, read-out: Cell growth inhibition %
Method: as §1, §2

[28] = tested on: OVCAR-4; assay type: cell-based; settings: Homo sapiens, OVCAR-4, Ovarian cancer, read-out: Cell growth inhibition %
Method: as §1, §2

[29] = tested on: K-562; assay type: cell-based; settings: Homo sapiens, K562, K-562, Leukemia, read-out: Cell growth inhibition %
Method: as §1, §2

[30] = tested on: ACHN; assay type: cell-based; settings: Homo sapiens, Renal cancer, read-out: Cell growth inhibition %
Method: as §1, §2

[31] = tested on: NCI-H23; assay type: cell-based; settings: Homo sapiens, NCI-H23, Non-small cell lung cancer, read-out: Cell growth inhibition %
Method: as §1, §2

[32] = tested on: NCI-H522; assay type: cell-based; settings: Homo sapiens, NCI-H522, Non-small cell lung cancer, read-out: Cell growth inhibition %
Method: as §1, §2

[33] = tested on: CAKI-1; assay type: cell-based; settings: Homo sapiens, CAKI-1, Renal cancer, read-out: Cell growth inhibition %
Method: as §1, §2

[34] = tested on: MCF7; assay type: cell-based; settings: Homo sapiens, MCF7, Breast cancer, read-out: Cell growth inhibition %
Method: as §1, §2

[35] = tested on: HL-60(TB); assay type: cell-based; settings: Homo sapiens, Leukemia, read-out: Cell growth inhibition %
Method: as §1, §2

SMILES | inhibition at 10 µM [1] [%] | inhibition at 10 µM [2] [%] | inhibition at 10 µM [3] [%] | inhibition at 10 µM [4] [%] | inhibition at 10 µM [5] [%] | inhibition at 10 µM [6] [%] | inhibition at 10 µM [7] [%] | inhibition at 10 µM [8] [%] | inhibition at 10 µM [9] [%] | inhibition at 10 µM [10] [%] | inhibition at 10 µM [11] [%] | inhibition at 10 µM [12] [%] | inhibition at 10 µM [13] [%] | inhibition at 10 µM [14] [%] | inhibition at 10 µM [15] [%] | inhibition at 10 µM [16] [%] | inhibition at 10 µM [17] [%] | inhibition at 10 µM [18] [%] | inhibition at 10 µM [19] [%] | inhibition at 10 µM [20] [%] | also measured
C=CCn1c(SCC(=O)c2ccccc2)nnc1-c1c[nH]c2ccccc12 [Compound 6a, 2-((4-Allyl-5-(1H-indol-3-yl)-4H-1,2,4-triazol-3-yl)thio)-1-phenylethanone] | 18.7 | 35 | -1.07 | 8.76 | 7.46 | -5.22 | 7.27 | 2.55 | -14.8 | 1.66 | -7.24 | 2.08 | 13.4 | 3.62 | 5.03 | 13.4 | 12.2 | -1.89 | -11.8 | 10.9 | Cell growth inhibition % ([2]; UO-31, Renal cancer, 10 µM): 34.27%; inhibition at 10 µM [21]: -4.98%; inhibition at 10 µM [22]: -43.9%; inhibition at 10 µM [23]: -9.05%; inhibition at 10 µM [24]: -10.6%; inhibition at 10 µM [25]: -3.17%; inhibition at 10 µM [26]: -22.1%; inhibition at 10 µM [27]: 3.89%; inhibition at 10 µM [28]: 2.53%; inhibition at 10 µM [29]: 7.37%; inhibition at 10 µM [30]: 6.19%; inhibition at 10 µM [31]: 0.39%; inhibition at 10 µM [32]: 2.25%; inhibition at 10 µM [33]: 16.9%; inhibition at 10 µM [34]: 2.77%; inhibition at 10 µM [35]: 4.39%
C=CCn1c(SCC(=O)c2ccc(OC)cc2)nnc1-c1c[nH]c2ccccc12 [Compound 6b, 2-((4-Allyl-5-(1H-indol-3-yl)-4H-1,2,4-triazol-3-yl)thio)-1-(4-methoxyphenyl) Ethenone] | 17.3 | 26.9 | -1.31 | 8.66 | 6.07 | 1.56 | 3.73 | 5.43 | -16.9 | -1.42 | 2.31 | -2.78 | 16.8 | -14.8 | 11.1 | 5.32 | 7.5 | 2.42 | -4.63 | 20.3 | inhibition at 10 µM [21]: -33.2%; inhibition at 10 µM [22]: -40.5%; inhibition at 10 µM [23]: -11.8%; inhibition at 10 µM [24]: -3.48%; inhibition at 10 µM [25]: -2.88%; inhibition at 10 µM [26]: 2.83%; inhibition at 10 µM [27]: 0.51%; inhibition at 10 µM [28]: -4.81%; inhibition at 10 µM [29]: 8.14%; inhibition at 10 µM [30]: 8.68%; inhibition at 10 µM [31]: 5.52%; inhibition at 10 µM [32]: 0.49%; inhibition at 10 µM [33]: 7.83%; inhibition at 10 µM [34]: 5.93%; inhibition at 10 µM [35]: 8.98%
